Structures can show the parent of a compound that is named as a salt.
Columns and labels:
[1] = test system: Human primary CD3+ T cells; assay: TNFα secretion by CD3+ T cells (AlphaLISA); conditions: 100 μM ATP; for Reversal of inhibition of T cells in the presence of ATP, A2A receptor antagonist in combination with dipyridamole: FIG. 5A-C (viability, CD8+ proliferation, TNFα), with dipyridamole 1 μM, Compound 8a 300 nM, NIR178 5 μM, CPI-444 5 μM, AZD4635 1 μM, AB928 1 μM
Procedure: Human primary CD3+ T cells were stimulated with antiCD3/antiCD28-coated microbeads, and treated with 100 μM ATP or control medium. Viability of CD3+ T cells (FIG. 5A) and proliferation of CD8+ T cells (FIG. 5B) were analysed by flow cytometry after a 3 days incubation period. TNFα secretion in the supernatant was analysed by AlphaLISA. Grey shaded bars show A2AR antagonist treated wells, whilst clear bars denote concentration-matched DMSO treated wells. […] Data shown are representative of data obtained in three healthy individuals in 4 independent experiments.
Venous blood from healthy volunteers, all of whom signed an informed consent approved by the Ethics Committee (FOR-UIC-BV-050-01-01 ICF_HBS_HD Version 5.0), was obtained via Unité d'Investigation Clinique (Centre Hospitalier Universitaire de Tivoli, La Louviere, Belgium). Mononuclear cells were collected by density gradient centrifugation, using SepMate-50 tubes and Lymphoprep according to the manufacturer's instructions. CD3+ T cells were isolated by immunomagnetic negative selection, using the EasySep Human T Cell Isolation Kit as per manufacturer's instructions. CD3+ T cells were stored in heat inactivated FBS and 10% DMSO in liquid nitrogen.
Human purified CD3+ T cells were thawed and washed twice with RPMI1640 medium, UltraGlutamine, supplemented with 1× non-essential amino acids (Lonza), and 1 mM Sodium Pyruvate (Gibco) (complete media), containing 10% hiFBS. After the final wash, cells were resuspended in PBS containing 10% FBS, and labeled using 3 μM CFSE during 5 min at room temperature, followed by two wash steps in complete media. After the last wash, cells were suspended at 1.6×10^6 cells/mL in X-Vivol5 medium. 50 μL of cell suspension (8×10^4 T cells) was added to wells of sterile round-bottom 96-well plates. Cells were activated by adding 50 μL of anti-CD3 anti-CD28 coated microbeads (Dynabeads human T-activator CD3/CD28), suspended in X-Vivo15 medium, at a ratio of one microbead per two cells. […] The final concentration of DMSO in the assay was 0.05%, and the final assay volume was 200 μL. Experiments were performed in biological duplicate, and DMSO control was added in quadruplicate. The cells were placed in a 37° C. humidified tissue culture incubator with 5% CO2 for 72 hours. After 72 hours, the cells were pelleted by centrifugation at 1600 rpm for 5 minutes, and supernatants were transferred to V-bottom 96-well plates for cytokine quantification. Cell pellets were resuspended in FACS buffer (see below) for flow cytometry analysis.
Supernatants were centrifuged at 4000 rpm for 10 minutes, and IL-2 was quantified using the IL-2 (human) AlphaLISA Biotin-Free Detection Kit, and TNFα was quantified using the AlphaLISA Human TNFα Biotin-Free Detection Kit, according to the manufacturer's instructions.

[2] = test system: Human primary CD3+ T cells; assay: Proliferation of CD4+ and CD8+ T cells (CFSE dilution, flow cytometry); conditions: 3 days; for T cell proliferation, effect of adenosine or ATP: anti-CD3/CD28-stimulated CD3+ T cells; for T cell proliferation, effect of adenosine or ATP / Restoration of adenosine- and ATP-mediated suppression of T cell proliferation: 25 μM adenosine or 200 μM ATP; for Restoration of adenosine- and ATP-mediated suppression of T cell proliferation: single agent, Compound 8a at 300 nM
Procedure: Human primary CD3+ T cells were stimulated with antiCD3/antiCD28-coated microbeads, and treated with 25 μM adenosine (FIGS. 3A and 3C) or 200 μM ATP (FIGS. 3B and 3D). Proliferation of CD4+(FIGS. 3A and 3B) and CD8+(FIGS. 3C and 3D) T cells was analysed by flow cytometry after a 3 days incubation period.
(§1) Human primary CD3+ T cells were stimulated with antiCD3/antiCD28-coated microbeads, and treated with 100 μM ATP or control medium. Viability of CD3+ T cells (FIG. 5A) and proliferation of CD8+ T cells (FIG. 5B) were analysed by flow cytometry after a 3 days incubation period.
(§2) PBMC and CD3+ T cell isolation. Venous blood from healthy volunteers, all of whom signed an informed consent approved by the Ethics Committee (FOR-UIC-BV-050-01-01 ICF_HBS_HD Version 5.0), was obtained via Unité d'Investigation Clinique (Centre Hospitalier Universitaire de Tivoli, La Louviere, Belgium). Mononuclear cells were collected by density gradient centrifugation, using SepMate-50 tubes and Lymphoprep according to the manufacturer's instructions. CD3+ T cells were isolated by immunomagnetic negative selection, using the EasySep Human T Cell Isolation Kit as per manufacturer's instructions. CD3+ T cells were stored in heat inactivated FBS and 10% DMSO in liquid nitrogen.
Human primary T cell culture. Human purified CD3+ T cells were thawed and washed twice with RPMI1640 medium, UltraGlutamine, supplemented with 1× non-essential amino acids (Lonza), and 1 mM Sodium Pyruvate (Gibco) (complete media), containing 10% hiFBS. After the final wash, cells were resuspended in PBS containing 10% FBS, and labeled using 3 μM CFSE during 5 min at room temperature, followed by two wash steps in complete media. After the last wash, cells were suspended at 1.6×10^6 cells/mL in X-Vivol5 medium. 50 μL of cell suspension (8×10^4 T cells) was added to wells of sterile round-bottom 96-well plates. Cells were activated by adding 50 μL of anti-CD3 anti-CD28 coated microbeads (Dynabeads human T-activator CD3/CD28), suspended in X-Vivo15 medium, at a ratio of one microbead per two cells. […] The final concentration of DMSO in the assay was 0.05%, and the final assay volume was 200 μL. Experiments were performed in biological duplicate, and DMSO control was added in quadruplicate. The cells were placed in a 37° C. humidified tissue culture incubator with 5% CO2 for 72 hours. […] Cell pellets were resuspended in FACS buffer (see below) for flow cytometry analysis.
(§3) Flow cytometry. Cells were washed with FACS buffer (PBS containing 2 mM EDTA and 0.1% BSA) and stained with surface marker antibodies and viability dye for 20 min on ice. Cells were washed twice with FACS buffer and data acquired using an LSRFortessa (BD biosciences). Analysis was performed using FlowJo software (Treestar).

[3] = test system: Human primary CD3+ T cells; conditions: 25 μM adenosine or 200 μM ATP, 3 days; for T cell cytokine secretion (IL-2), effect of adenosine or ATP: anti-CD3/CD28-stimulated CD3+ T cells; for Restoration of adenosine- and ATP-mediated suppression of IL-2 secretion: single agent, Compound 8a at 300 nM
Procedure: CD3+ T cells were stimulated with antiCD3/antiCD28-coated microbeads, and treated with 25 μM adenosine (FIG. 4A) or 200 μM ATP (FIG. 4B). IL-2 secretion in the supernatant was analysed by AlphaLISA after a 3 days incubation period. […] Representative data for 1 healthy donor are shown.
as §2
(§4) Human primary T cell culture. Human purified CD3+ T cells were thawed and washed twice with RPMI1640 medium, UltraGlutamine, supplemented with 1× non-essential amino acids (Lonza), and 1 mM Sodium Pyruvate (Gibco) (complete media), containing 10% hiFBS. After the final wash, cells were resuspended in PBS containing 10% FBS, and labeled using 3 μM CFSE during 5 min at room temperature, followed by two wash steps in complete media. After the last wash, cells were suspended at 1.6×10^6 cells/mL in X-Vivol5 medium. 50 μL of cell suspension (8×10^4 T cells) was added to wells of sterile round-bottom 96-well plates. Cells were activated by adding 50 μL of anti-CD3 anti-CD28 coated microbeads (Dynabeads human T-activator CD3/CD28), suspended in X-Vivo15 medium, at a ratio of one microbead per two cells. […] The final concentration of DMSO in the assay was 0.05%, and the final assay volume was 200 μL. Experiments were performed in biological duplicate, and DMSO control was added in quadruplicate. The cells were placed in a 37° C. humidified tissue culture incubator with 5% CO2 for 72 hours. After 72 hours, the cells were pelleted by centrifugation at 1600 rpm for 5 minutes, and supernatants were transferred to V-bottom 96-well plates for cytokine quantification. Cell pellets were resuspended in FACS buffer (see below) for flow cytometry analysis.
Cytokine quantification. Supernatants were centrifuged at 4000 rpm for 10 minutes, and IL-2 was quantified using the IL-2 (human) AlphaLISA Biotin-Free Detection Kit, and TNFα was quantified using the AlphaLISA Human TNFα Biotin-Free Detection Kit, according to the manufacturer's instructions.

[4] = test system: Human primary CD3+ T cells; assay: Viability of stimulated human primary CD3+ T cells (flow cytometry, fixable viability dye); conditions: 3 days; for T cell viability, effect of adenosine or ATP: anti-CD3/CD28-stimulated CD3+ T cells; for T cell viability, effect of adenosine or ATP / Restoration of adenosine- and ATP-mediated suppression of T cell viability: 25 μM adenosine or 200 μM ATP; for Restoration of adenosine- and ATP-mediated suppression of T cell viability: single agent, Compound 8a at 300 nM
Procedure: Human primary CD3+ T cells were stimulated with antiCD3/antiCD28-coated microbeads, and treated with 25 μM adenosine (FIG. 2A) or 200 μM ATP (FIG. 2B). T cell viability was analysed by flow cytometry after a 3 days incubation period.
as §1
PBMC and CD3+ T cell isolation. […] Mononuclear cells were collected by density gradient centrifugation, using SepMate-50 tubes and Lymphoprep according to the manufacturer's instructions. CD3+ T cells were isolated by immunomagnetic negative selection, using the EasySep Human T Cell Isolation Kit as per manufacturer's instructions. CD3+ T cells were stored in heat inactivated FBS and 10% DMSO in liquid nitrogen.
as §4, §3

MCA205 tumor = assay: Mouse syngeneic MCA205 fibrosarcoma tumor model; assay type: in vivo; conditions: C57BL/6 mice; 20 mg/kg p.o. BID for 22 days; p=0.0043
Text: FIG. 7A is a graph representing the median tumor volume over time after subcutaneous inoculation of tumor cells.
MCA205 tumor cells were inoculated subcutaneously into the right flank of C57BL/6 mice. When tumors reached an average size of about […], mice were randomly allocated into groups.

[5] = test system: LPS induced TNFalpha production; assay: In vivo LPS induced TNFalpha production in mouse (serum ELISA); conditions: BALB/c mice; 20 mg/kg p.o. 1 h before LPS; p=0.008
Procedure: BALB/c mice were pretreated for 1 h before LPS (1 mg/kg I.V) injection with NBMPR (20 mg/kg p.o.) or vehicle. […] One hour after LPS treatment, blood serum was collected from the mice. TNFalpha levels were determined by ELISA (n=5).
After 30 minutes, mice were treated with NBMPR p.o. at 20 mg/kg. 60 minutes later, mice were treated with LPS and blood was drawn for TNFalpha measurement in the serum, by ELISA.

How did the “Production of TNFα, effect of ATP” value ([1]; 3 days) turn out when `Nc1ncnc2c1ncn2[C@@H]1O[C@H](COP(=O)([O-])OP(=O)([O-])OP(=O)(O)O)[C@@H](O)[C@H]1O.O.[Na+].[Na+]` [ATP, Adenosine 5′-triphosphate disodium salt hydrate] was run?
Its value is “significantly inhibited”.

And the “CD8+ T cell proliferation, effect of ATP” value ([2]; 100 μM ATP)?
Its value is “significantly inhibited”.

And the “T cell proliferation, effect of adenosine or ATP” value [2]?
Its value is “profoundly suppressed”.

What about the “T cell cytokine secretion (IL-2), effect of adenosine or ATP” value [3] of the same compound?
The value was “profoundly suppressed”.

What about the “T cell viability, effect of ATP” value ([4]; 100 μM ATP) of the same compound?
Its value is “reduced”.

What about the “T cell viability, effect of adenosine or ATP” value [4] of the same compound?
Its value is “strongly reduced”.

Which “Reversal of inhibition of T cells in the presence of ATP, A2A receptor antagonist in combination with dipyridamole” value (shortened to “Reversal of inhibition of T cells”) [1] does the source give for `Cc1cc(-c2nnc(N)nc2-c2ccc(F)cc2)cc(Cl)n1` [AZD4635, 6-(2-chloro-6-methylpyridin-4-yl)-5-(4-fluorophenyl)-1,2,4-triazin-3-amine] here?
The value was “reversed”.

With `COc1cc(C(=O)OCCCN2CCCN(CCCOC(=O)c3cc(OC)c(OC)c(OC)c3)CC2)cc(OC)c1OC` [dilazep hydrochloride] as the compound, how does the “Restoration of adenosine- and ATP-mediated suppression of T cell proliferation” value (shortened to “Restoration … of T cell proliferation”) [2] read?
Its value is “restored”.

What about the “Restoration of adenosine- and ATP-mediated suppression of IL-2 secretion” value (“Restoration … of IL-2 secretion” for short) [3] of the same compound?
Its value is “none of the ENT inhibitors rescued”.

And the “Restoration of adenosine- and ATP-mediated suppression of T cell viability” value (from here on “Restoration … of T cell viability”) [4]?
The value was “restored”.

With `Nc1nc(-n2cccn2)nc(-n2cccn2)c1Br` [NIR178, 5-bromo-2,6-di-(1H-pyrazol-1-yl)pyrimidin-4-amine] as the compound, how does the “Reversal of inhibition of T cells” value [1] read?
The value was “reversed”.

For `CCCSc1nc(N[C@@H]2C[C@H]2c2ccc(F)c(F)c2)c2nnn([C@@H]3C[C@H](OCCO)[C@@H](O)[C@H]3O)c2n1` [ticagrelor], which “Restoration … of T cell proliferation” value [2] is on record?
The value was “restored”.

And the “Restoration … of IL-2 secretion” value [3]?
Its value is “none of the ENT inhibitors rescued”.

What about the “Restoration … of T cell viability” value [4] of the same compound?
Its value is “restored”.

`OCCN(CCO)c1nc(N2CCCCC2)c2nc(N(CCO)CCO)nc(N3CCCCC3)c2n1` [dipyridamole] was tested. Which “Reversal of ATP inhibition of CD8+ T cell proliferation” value ([2]; 100 μM ATP, dipyridamole 1 μM) did it give?
The value was “completely reversed”.

And the “Restoration … of T cell proliferation” value [2]?
Its value is “restored”.

What about the “Restoration … of IL-2 secretion” value [3] of the same compound?
Its value is “none of the ENT inhibitors rescued”.

And the “Reversal of ATP-reduced T cell viability” value ([4]; 100 μM ATP, dipyridamole 1 μM)?
The value was “completely reversed”.

And the “Restoration … of T cell viability” value [4]?
Its value is “restored”.

How did the “Reversal of inhibition of T cells” value [1] turn out when `Cc1ccc(-c2nc(N)nc3c2nnn3Cc2cccc(CO[C@H]3CCOC3)n2)o1` [CPI-444, (S)-7-(5-methylfuran-2-yl)-3-((6-(([tetrahydrofuran-3-yl]oxy)methyl)pyridin-2-yl)methyl)-3H-[1,2,3]triazolo[4,5-d]pyrimidin-5-amine] was run?
Its value is “reversed”.

`Nc1ncnc2c1ncn2[C@@H]1O[C@H](CO)[C@@H](O)[C@H]1O` [Adenosine] was tested. Which “T cell proliferation, effect of adenosine or ATP” value [2] did it give?
The value was “profoundly suppressed”.

And the “T cell cytokine secretion (IL-2), effect of adenosine or ATP” value [3]?
The value was “profoundly suppressed”.

What about the “T cell viability, effect of adenosine or ATP” value [4] of the same compound?
The value was “strongly reduced”.

Which results are given for `O=[N+]([O-])c1ccc(CSc2ncnc3c2ncn3[C@@H]2O[C@H](CO)[C@@H](O)[C@H]2O)cc1` [NBMPR, 6-S-[(4-Nitrophenyl)methyl]-6-thioinosine]?
Tumor growth compared to Vehicle, NBMPR single agent (MCA205 tumor): significant delay in tumor growth; Suppression of TNFalpha production after LPS, NBMPR on its own [5]: ~2 fold

For `Cc1c(C#N)cccc1-c1cc(-c2cn(Cc3cccc(C(C)(C)O)n3)nn2)nc(N)n1` [AB928, 3-(2-amino-6-(1-((6-(2-hydroxypropan-2-yl)pyridin-2-yl)methyl)-1H-1,2,3-triazol-4-yl)pyrimidin-4-yl)-2-methylbenzonitrile], which “Reversal of inhibition of T cells” value [1] is on record?
The value was “reversed”.

Reference: patent US20210338672A1, “USE OF AN INHIBITOR OF AN ENT FAMILY TRANSPORTER IN THE TREATMENT OF CANCER AND COMBINATION THEREOF WITH AN ADENOSINE RECEPTOR ANTAGONIST” (iTeos Belgium SA, priority 2018, published 2021)
